{
  "source": "ChEMBL document CHEMBL3526052",
  "about": "(Drug Metab Dispos, 2013)",
  "key": {"[1]": {"experiment": "Cmax in CD-1 mouse brain at 60 mg/kg, iv administered as bolus dose in presence of ENT1 inhibitor NBMPR-P", "type": "ADME, organism-based", "design": "dose 60 mg/kg, route intravenous"}, "Brain [2]": {"system": "Brain", "experiment": "AUC (0 to 4 hrs) in CD-1 mouse brain at 60 mg/kg, iv administered as bolus dose in presence of ENT1 inhibitor NBMPR-P", "type": "ADME, organism-based", "design": "time < 4 hr, dose 60 mg/kg, route intravenous", "conditions": "in vivo"}, "[3]": {"experiment": "Apparent volume of distribution at steady state in CD-1 mouse at 60 mg/kg, iv administered as bolus dose in presence of ENT1 inhibitor NBMPR-P", "type": "ADME, organism-based", "design": "dose 60 mg/kg, route intravenous", "conditions": "in vivo, read-out: Vdss(app)"}, "[4]": {"experiment": "Cmax in CD-1 mouse brain at 60 mg/kg, iv administered as bolus dose in absence of ENT1 inhibitor NBMPR-P", "type": "ADME, organism-based", "design": "dose 60 mg/kg, route intravenous"}, "[5]": {"experiment": "Elimination half life in CD-1 mouse at 60 mg/kg, iv administered as bolus dose in presence of ENT1 inhibitor NBMPR-P", "type": "ADME, organism-based", "design": "dose 60 mg/kg, route intravenous", "conditions": "in vivo, read-out: beta t1/2 (converted)"}, "[6]": {"experiment": "Tmax in CD-1 mouse brain at 60 mg/kg, iv administered as bolus dose in absence of ENT1 inhibitor NBMPR-P", "type": "ADME, organism-based", "design": "dose 60 mg/kg, route intravenous"}, "[7]": {"experiment": "AUC (0 to infinity) in CD-1 mouse at 60 mg/kg, iv administered as bolus dose in absence of ENT1 inhibitor NBMPR-P", "type": "ADME, organism-based", "design": "time infinity, dose 60 mg/kg, route intravenous", "conditions": "plasma"}, "Brain [8]": {"system": "Brain", "experiment": "AUC (0 to 4 hrs) in CD-1 mouse brain at 60 mg/kg, iv administered as bolus dose in absence of ENT1 inhibitor NBMPR-P", "type": "ADME, organism-based", "design": "time < 4 hr, dose 60 mg/kg, route intravenous", "conditions": "in vivo"}, "[9]": {"experiment": "Tmax in CD-1 mouse brain at 60 mg/kg, iv administered as bolus dose in presence of ENT1 inhibitor NBMPR-P", "type": "ADME, organism-based", "design": "dose 60 mg/kg, route intravenous"}, "[10]": {"experiment": "Elimination half life in CD-1 mouse at 60 mg/kg, iv administered as bolus dose in absence of ENT1 inhibitor NBMPR-P", "type": "ADME, organism-based", "design": "dose 60 mg/kg, route intravenous", "conditions": "in vivo, read-out: beta t1/2 (converted)"}, "[11]": {"experiment": "AUC (0 to infinity) in CD-1 mouse at 60 mg/kg, iv administered as bolus dose in presence of ENT1 inhibitor NBMPR-P", "type": "ADME, organism-based", "design": "time infinity, dose 60 mg/kg, route intravenous", "conditions": "plasma"}, "[12]": {"experiment": "Apparent volume of distribution at steady state in CD-1 mouse at 60 mg/kg, iv administered as bolus dose in absence of ENT1 inhibitor NBMPR-P", "type": "ADME, organism-based", "design": "dose 60 mg/kg, route intravenous", "conditions": "in vivo, read-out: Vdss(app)"}, "[13]": {"target": "T1, Sodium/nucleoside cotransporter 1 (Homo sapiens, UniProt O00337)", "T1 sequence (O00337 whole entry)": "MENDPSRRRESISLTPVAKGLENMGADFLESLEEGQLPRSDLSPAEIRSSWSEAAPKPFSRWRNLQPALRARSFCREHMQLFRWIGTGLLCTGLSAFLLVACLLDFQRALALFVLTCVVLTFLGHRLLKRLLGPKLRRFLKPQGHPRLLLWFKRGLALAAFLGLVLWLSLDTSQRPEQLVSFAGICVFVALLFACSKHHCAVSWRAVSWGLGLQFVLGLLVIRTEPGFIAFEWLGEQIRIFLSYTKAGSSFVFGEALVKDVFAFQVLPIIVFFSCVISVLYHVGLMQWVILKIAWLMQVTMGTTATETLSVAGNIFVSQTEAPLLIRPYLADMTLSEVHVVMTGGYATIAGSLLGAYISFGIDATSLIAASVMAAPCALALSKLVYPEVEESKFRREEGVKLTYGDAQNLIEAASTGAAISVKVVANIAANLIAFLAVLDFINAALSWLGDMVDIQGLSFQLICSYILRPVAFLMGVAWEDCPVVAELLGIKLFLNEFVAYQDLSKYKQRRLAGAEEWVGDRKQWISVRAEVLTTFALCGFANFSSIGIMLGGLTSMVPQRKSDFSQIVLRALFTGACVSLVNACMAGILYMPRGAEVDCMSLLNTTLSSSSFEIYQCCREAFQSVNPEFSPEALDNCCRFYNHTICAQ", "experiment": "Binding affinity to recombinant human CNT1 expressed in Saccharomyces cerevisiae assessed as inhibition of [3H]-uridine transport after 15 mins by scintillation counting analysis", "type": "ADME"}, "[14]": {"target": "T2, Equilibrative nucleoside transporter 2 (Homo sapiens, UniProt Q14542)", "T2 sequence (Q14542 whole entry)": "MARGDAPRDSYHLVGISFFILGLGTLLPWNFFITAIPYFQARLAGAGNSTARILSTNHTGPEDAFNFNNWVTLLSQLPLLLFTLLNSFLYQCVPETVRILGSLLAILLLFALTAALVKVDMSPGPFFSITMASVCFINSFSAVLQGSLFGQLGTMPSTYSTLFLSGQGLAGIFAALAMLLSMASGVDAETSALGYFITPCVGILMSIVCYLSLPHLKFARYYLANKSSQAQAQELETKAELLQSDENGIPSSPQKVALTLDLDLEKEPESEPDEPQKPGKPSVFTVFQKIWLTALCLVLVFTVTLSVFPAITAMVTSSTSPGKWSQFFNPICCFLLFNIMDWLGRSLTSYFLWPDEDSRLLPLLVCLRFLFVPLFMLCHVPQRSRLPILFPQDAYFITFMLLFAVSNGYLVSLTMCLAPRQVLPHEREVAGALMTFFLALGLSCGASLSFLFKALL", "experiment": "Binding affinity to recombinant human ENT2 expressed in Saccharomyces cerevisiae assessed as inhibition of [3H]-uridine transport after 15 mins by scintillation counting analysis", "type": "ADME"}, "[15]": {"target": "T3, Sodium/nucleoside cotransporter 2 (Homo sapiens, UniProt O43868)", "T3 sequence (O43868 whole entry)": "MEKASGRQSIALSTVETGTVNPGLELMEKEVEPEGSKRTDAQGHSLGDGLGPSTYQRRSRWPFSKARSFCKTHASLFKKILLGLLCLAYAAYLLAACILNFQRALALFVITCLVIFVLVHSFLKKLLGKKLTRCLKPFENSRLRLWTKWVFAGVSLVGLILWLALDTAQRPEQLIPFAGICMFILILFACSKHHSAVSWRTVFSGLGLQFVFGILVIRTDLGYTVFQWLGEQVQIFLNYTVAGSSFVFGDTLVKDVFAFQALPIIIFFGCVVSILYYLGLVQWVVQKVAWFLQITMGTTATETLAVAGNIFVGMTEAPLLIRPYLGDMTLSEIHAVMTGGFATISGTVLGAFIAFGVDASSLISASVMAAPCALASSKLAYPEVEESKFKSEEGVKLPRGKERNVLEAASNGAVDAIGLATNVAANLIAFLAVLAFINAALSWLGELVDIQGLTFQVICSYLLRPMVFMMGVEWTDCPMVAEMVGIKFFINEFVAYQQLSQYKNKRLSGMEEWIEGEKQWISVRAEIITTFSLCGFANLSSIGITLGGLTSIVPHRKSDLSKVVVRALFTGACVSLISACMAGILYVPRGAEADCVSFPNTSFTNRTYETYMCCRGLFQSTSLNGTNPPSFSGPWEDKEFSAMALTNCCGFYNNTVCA", "experiment": "Binding affinity to recombinant human CNT2 expressed in Saccharomyces cerevisiae assessed as inhibition of [3H]-uridine transport after 15 mins by scintillation counting analysis", "type": "ADME"}, "[16]": {"target": "T4, Solute carrier family 28 member 3 (Homo sapiens, UniProt Q9HAS3)", "T4 sequence (Q9HAS3 whole entry)": "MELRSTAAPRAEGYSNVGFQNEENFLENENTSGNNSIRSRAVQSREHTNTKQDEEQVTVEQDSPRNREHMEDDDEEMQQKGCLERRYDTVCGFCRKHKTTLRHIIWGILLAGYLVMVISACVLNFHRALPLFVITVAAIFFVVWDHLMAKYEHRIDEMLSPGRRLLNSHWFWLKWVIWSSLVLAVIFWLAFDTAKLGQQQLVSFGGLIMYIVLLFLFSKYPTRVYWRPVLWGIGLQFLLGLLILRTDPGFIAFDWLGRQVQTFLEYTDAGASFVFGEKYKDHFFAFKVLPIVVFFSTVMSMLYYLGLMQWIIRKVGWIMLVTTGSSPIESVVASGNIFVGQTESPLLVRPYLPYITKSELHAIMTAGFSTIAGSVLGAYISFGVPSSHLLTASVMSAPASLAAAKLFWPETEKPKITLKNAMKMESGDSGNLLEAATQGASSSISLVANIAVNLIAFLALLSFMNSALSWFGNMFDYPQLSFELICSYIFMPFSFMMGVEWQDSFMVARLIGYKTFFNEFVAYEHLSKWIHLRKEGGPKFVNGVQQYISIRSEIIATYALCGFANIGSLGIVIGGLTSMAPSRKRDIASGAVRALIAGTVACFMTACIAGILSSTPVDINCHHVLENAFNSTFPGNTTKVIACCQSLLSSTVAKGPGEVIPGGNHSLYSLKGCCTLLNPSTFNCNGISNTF", "experiment": "Binding affinity to recombinant human CNT3 expressed in Saccharomyces cerevisiae assessed as inhibition of [3H]-uridine transport after 5 mins by scintillation counting analysis", "type": "ADME"}},
  "data": [
    {"compound": "Nc1nc(F)nc2c1ncn2[C@@H]1O[C@H](CO)[C@@H](O)[C@@H]1O", "note": "[FLUDARABINE]", "values": [
      {"measurement": "Cmax", "setting": "[1]", "result": 801, "unit": "ng/g"},
      {"measurement": "AUC", "setting": "Brain [2]", "result": 2490, "unit": "ng·h/g"},
      {"measurement": "Vd", "setting": "[3]", "result": 2.6, "unit": "L/kg"},
      {"measurement": "Cmax", "setting": "[4]", "result": 6050, "unit": "ng/g"},
      {"measurement": "half-life", "setting": "[5]", "result": 2.2, "unit": "h"},
      {"measurement": "Tmax", "setting": "[6]", "result": 0.88, "unit": "h"},
      {"measurement": "AUC(0-inf)", "setting": "[7]", "result": 39600, "unit": "ng·h/mL"},
      {"measurement": "AUC", "setting": "Brain [8]", "result": 11300, "unit": "ng·h/g"},
      {"measurement": "Tmax", "setting": "[9]", "result": 1.63, "unit": "h"},
      {"measurement": "half-life", "setting": "[10]", "result": 1.7, "unit": "h"},
      {"measurement": "AUC(0-inf)", "setting": "[11]", "result": 65700, "unit": "ng·h/mL"},
      {"measurement": "Vd", "setting": "[12]", "result": 1.6, "unit": "L/kg"}
    ]},
    {"compound": "Nc1ncnc2c1ncn2[C@@H]1O[C@H](CO)[C@@H](O)[C@H]1O", "note": "[ADENOSINE]", "values": [
      {"measurement": "IC50", "setting": "[13]", "result": 5.5, "unit": "µM"},
      {"measurement": "Ki", "setting": "[13]; read-out: Ki(app)", "result": 1.8, "unit": "µM"},
      {"measurement": "IC50", "setting": "[14]", "result": 106, "unit": "µM"},
      {"measurement": "Ki", "setting": "[14]; read-out: Ki(app)", "result": 106, "unit": "µM"},
      {"measurement": "IC50", "setting": "[15]", "result": 5.5, "unit": "µM"},
      {"measurement": "Ki", "setting": "[15]; read-out: Ki(app)", "result": 5.3, "unit": "µM"},
      {"measurement": "IC50", "setting": "[16]", "result": 3.3, "unit": "µM"},
      {"measurement": "Ki", "setting": "[16]; read-out: Ki(app)", "result": 2.1, "unit": "µM"}
    ]}
  ]
}
